“Also recorded” adds a separate entry of the source.
How the values were obtained:
[1] = in the body; no species or test given; cited from earlier work
[2] = system: HCT116 colorectal carcinoma xenograft; experiment: Anti-tumoral efficacy in the HCT116 colorectal carcinoma xenograft model (tumor volume); assay type: in vivo, female NCr nu/nu mice; conditions: intraperitoneal, 45 mg/kg or 1.7 mg/kg qd x 21, both high and low dose
Method: Purpose: To determine the anti-tumoral efficacy of [6R]-methylene-THF in the HCT116 colorectal carcinoma xenograft model. The HCT116 colorectal carcinoma cell line is sensitive to 5-FU and its analog capecitabine.
(§1) Study design: A total of 30 female NCr nu/nu mice (10 per group) at the age of 8-12 weeks were injected with 5×10^6 HCT116 tumor cells in 0% Matrigel sc in flank. When the tumors reached an average size of […] they were administered with intraperitoneal injections of vehicle or [6R]-methylene-THF (Modufolin®), according to the schedule in table 1. Animals were monitored individually. The endpoint of the experiment was when a tumor weight of 1300 mm3 or 65 days was reached, whichever came first. Responders could be followed longer. When the endpoint was reached, the animals were euthanized. Body weight (bw) (g) and tumor volume (mm3) was measured on days 1, 2 (bw only), 3 (bw only), 4, 5 (bw only), 7, 11, 14, 18, 21, 25, 28, 32, 35, 39, 42, 49, 53, 56, 60 and 63.

[3] = Body weight development / tolerability in the HCT116 xenograft study; assay type: in vivo, female NCr nu/nu mice; conditions: intraperitoneal
Method: as §1
Body weight gives an indication on how severe the side effects of the treatment are, poor development of body weight indicating more adverse side effects.

Structure (SMILES)	half life [1]	anti-tumor activity (mean tumor volume over time compared to control) [2]	effect on animal weight ([3]; high-dose (45 mg/kg, qd x 21))	body weight development compared to the vehicle group ([3]; qd x 21, both dose groups overall)	effect on animal weight ([3]; low-dose (1.7 mg/kg, qd x 21))
Nc1nc2c(c(=O)[nH]1)NC(CNc1ccc(C(=O)N[C@@H](CCC(=O)O)C(=O)O)cc1)CN2 (stereo partly shown) [THF, tetrahydrofolic acid]	approximately 30 min	–	–	–	–
Nc1nc2c(c(=O)[nH]1)N1CN(c3ccc(C(=O)N[C@@H](CCC(=O)O)C(=O)O)cc3)C[C@H]1CN2 [[6R]-methylene-THF, [6R]-5,10-methylenetetrahydrofolic acid]	–	marked influence on tumor volume; also recorded: intrinsic antitumor activity	in line with the vehicle group	slightly positive body weight development	positive effect on animal weight
CN1c2c(nc(N)[nH]c2=O)NCC1CNc1ccc(C(=O)N[C@@H](CCC(=O)O)C(=O)O)cc1 (stereo partly shown) [methyl-THF, 5-methyl-tetrahydrofolic acid]	approximately 5 hours	–	–	–	–
Nc1nc2c(c(=O)[nH]1)N1CN(c3ccc(C(=O)N[C@@H](CCC(=O)O)C(=O)O)cc3)CC1CN2 (stereo partly shown) [methylene-THF, 5,10-methylene-tetrahydrofolic acid]	approximately 20 min	–	–	–	–

Source: patent US20150018361A1, “ANTI-TUMOR ACTIVITY OF REDUCED FOLATES LIKE METHYLENE-TETRAHYDROFOLATE” (ISOFOL MEDICAL AB, priority 2012, published 2015)
